The target of data set [1] is T1, KIF14 K735 (MT-K735) (Mus musculus, UniProt L0N7N1).
T1 construct: core motor domain N391-L735, no neck-linker; GST tag cleaved (PreScission), E. coli BL21(DE3) pLysS; monomer; with Tubulin alpha chain (Sus scrofa, porcine brain); Tubulin beta chain (Sus scrofa, porcine brain)
T1 sequence (L0N7N1 391-735): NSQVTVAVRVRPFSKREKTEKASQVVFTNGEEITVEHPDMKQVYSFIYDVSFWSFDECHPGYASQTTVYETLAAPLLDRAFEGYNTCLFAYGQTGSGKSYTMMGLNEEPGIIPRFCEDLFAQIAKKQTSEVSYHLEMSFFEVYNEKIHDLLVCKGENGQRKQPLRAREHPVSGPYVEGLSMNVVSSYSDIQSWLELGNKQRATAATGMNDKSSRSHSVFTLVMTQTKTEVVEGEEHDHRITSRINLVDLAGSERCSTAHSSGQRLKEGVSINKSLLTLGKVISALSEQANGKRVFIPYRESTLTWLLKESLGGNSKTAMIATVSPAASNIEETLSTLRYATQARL
In words: malachite green phosphate assay. Type of data set: biochemical. To be noted: 1 mM ATP, 2 uM paclitaxel-stabilised microtubules, 50 nM KIF14, 1 mM MgCl2, PIPES pH 6.8. The source says: (§1) malachite green phosphate assay on KIF14 […] (MT-[…]) | Microtubule-stimulated ATPase rate of […], […], […], and […] constructs

The target in the next data set is T2, KIF14 K755 (MT-K755) (Mus musculus, UniProt L0N7N1).
T2 construct: motor domain, neck-linker and part of first CC1 heptad N391-K755; GST tag cleaved (PreScission), E. coli BL21(DE3) pLysS; with Tubulin alpha chain (Sus scrofa, porcine brain); Tubulin beta chain (Sus scrofa, porcine brain)
T2 sequence (L0N7N1 391-755): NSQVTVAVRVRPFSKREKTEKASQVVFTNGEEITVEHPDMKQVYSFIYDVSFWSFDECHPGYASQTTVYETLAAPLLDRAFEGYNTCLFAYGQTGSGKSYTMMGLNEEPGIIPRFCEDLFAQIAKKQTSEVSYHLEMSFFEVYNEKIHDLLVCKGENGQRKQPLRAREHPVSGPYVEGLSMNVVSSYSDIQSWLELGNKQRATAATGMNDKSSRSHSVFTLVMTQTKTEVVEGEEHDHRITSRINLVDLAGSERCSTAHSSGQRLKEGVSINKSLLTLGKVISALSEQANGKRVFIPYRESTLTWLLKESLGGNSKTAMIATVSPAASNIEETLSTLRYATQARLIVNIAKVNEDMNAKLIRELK
In words: malachite green phosphate assay. Format: biochemical. Particulars: 1 mM ATP, 2 uM paclitaxel-stabilised microtubules, 50 nM KIF14, 1 mM MgCl2, PIPES pH 6.8.
Excerpt: as §1

The target in the next data set is T3, KIF14 K743 (MT-K743) (Mus musculus, UniProt L0N7N1).
T3 construct: motor domain plus 8 neck-linker residues N391-N743; GST tag cleaved (PreScission), E. coli BL21(DE3) pLysS; monomer; with Tubulin alpha chain (Sus scrofa, porcine brain); Tubulin beta chain (Sus scrofa, porcine brain)
T3 sequence (L0N7N1 391-743): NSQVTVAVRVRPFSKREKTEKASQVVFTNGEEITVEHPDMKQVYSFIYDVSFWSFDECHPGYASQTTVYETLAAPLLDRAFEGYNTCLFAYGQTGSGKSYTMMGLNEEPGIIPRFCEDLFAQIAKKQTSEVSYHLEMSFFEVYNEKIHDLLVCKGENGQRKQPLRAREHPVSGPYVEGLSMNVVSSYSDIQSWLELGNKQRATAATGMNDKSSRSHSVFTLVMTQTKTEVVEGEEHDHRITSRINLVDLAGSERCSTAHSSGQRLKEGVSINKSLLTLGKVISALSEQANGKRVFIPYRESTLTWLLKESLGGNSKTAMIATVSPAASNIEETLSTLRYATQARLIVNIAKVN
Briefly: malachite green phosphate assay. Format: biochemical. Particulars: 1 mM ATP, 2 uM paclitaxel-stabilised microtubules, 50 nM KIF14, 1 mM MgCl2, PIPES pH 6.8.
Excerpt: as §1

Another data set addresses T4, KIF14 K748 (MT-K748) (Mus musculus, UniProt L0N7N1).
T4 construct: motor domain plus 13 neck-linker residues N391-A748; GST tag cleaved (PreScission), E. coli BL21(DE3) pLysS; monomer; with Tubulin alpha chain (Sus scrofa, porcine brain); Tubulin beta chain (Sus scrofa, porcine brain)
T4 sequence (L0N7N1 391-748): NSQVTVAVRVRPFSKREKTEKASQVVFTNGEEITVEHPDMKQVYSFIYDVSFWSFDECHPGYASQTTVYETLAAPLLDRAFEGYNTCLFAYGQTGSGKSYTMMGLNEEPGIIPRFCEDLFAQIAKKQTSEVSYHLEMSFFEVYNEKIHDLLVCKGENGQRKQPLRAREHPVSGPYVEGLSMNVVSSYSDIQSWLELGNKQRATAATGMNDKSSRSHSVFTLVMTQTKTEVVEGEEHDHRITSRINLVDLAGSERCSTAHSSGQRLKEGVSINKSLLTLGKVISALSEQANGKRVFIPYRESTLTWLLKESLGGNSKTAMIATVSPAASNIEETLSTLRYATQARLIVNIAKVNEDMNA
Briefly: malachite green phosphate assay. Format: biochemical. Particulars: 1 mM ATP, 2 uM paclitaxel-stabilised microtubules, 50 nM KIF14, 1 mM MgCl2, PIPES pH 6.8.
Excerpt: as §1

Data set [2] concerns the target T1, KIF14 K735 (MT-K735). In words: cryo-EM structure. Type of data set: binding. Particulars: microtubule-bound; 4 mM ADP plus 2 mM AlCl3 and 10 mM KF; AlFx and Mg2+ densities near noise; open* conformation.
Data set [3] concerns the molecule itself. In words: SEC; size-exclusion chromatography of the KIF14 constructs alone in solution, elution compared with protein standards (66, 44 and 25 kDa).

With `Nc1ncnc2c1ncn2[C@@H]1O[C@H](COP(=O)(O)OP(=O)(O)OP(=O)(O)O)[C@@H](O)[C@H]1O` [ATP], the “Microtubule-stimulated ATPase rate” value on KIF14 K735 (MT-K735) [1] is “Microtubule-stimulated ATPase rate of K735, K743, K748, and K755 constructs”; on KIF14 K755 (MT-K755) it was “Microtubule-stimulated ATPase rate of K735, K743, K748, and K755 constructs”; at KIF14 K743 (MT-K743), “Microtubule-stimulated ATPase rate of K735, K743, K748, and K755 constructs”; at KIF14 K748 (MT-K748), “Microtubule-stimulated ATPase rate of K735, K743, K748, and K755 constructs”.

Consider `Nc1ncnc2c1ncn2[C@@H]1O[C@H](COP(=O)(O)OP(=O)(O)O)[C@@H](O)[C@H]1O` [ADP], for which, at KIF14 K735 (MT-K735) [2], the cryo-EM structure result is “The MT-K735-AAF and MT-K743-AAF maps contain strong densities associated with ADP”.

B1: KIF14 construct K772 (residues Asn-391 to Asp-772) (domain or fragment, mouse, UniProt L0N7N1 391-772, looked up)
chain: NSQVTVAVRVRPFSKREKTEKASQVVFTNGEEITVEHPDMKQVYSFIYDVSFWSFDECHPGYASQTTVYETLAAPLLDRAFEGYNTCLFAYGQTGSGKSYTMMGLNEEPGIIPRFCEDLFAQIAKKQTSEVSYHLEMSFFEVYNEKIHDLLVCKGENGQRKQPLRAREHPVSGPYVEGLSMNVVSSYSDIQSWLELGNKQRATAATGMNDKSSRSHSVFTLVMTQTKTEVVEGEEHDHRITSRINLVDLAGSERCSTAHSSGQRLKEGVSINKSLLTLGKVISALSEQANGKRVFIPYRESTLTWLLKESLGGNSKTAMIATVSPAASNIEETLSTLRYATQARLIVNIAKVNEDMNAKLIRELKAEIEKLKAAQRSNRNID
notes: KIF14, mouse (Mus musculus), full length 1674 amino acids; Dimer in solution by size-exclusion chromatography; source: E. coli BL21 (DE3) pLysS, purified (glutathione resin, cleaved on beads with PreScission protease)
Take B1: the “stoichiometry N” value in data set [3] was 2.

These data come from paper PMC8206134, “Structural basis of mechano-chemical coupling by the mitotic kinesin KIF14” (Nature Communications, 2021).
